According to article PMC12445744, “Molecular docking to homology models of human and Trypanosoma brucei ERK8 that identified ortholog-specific inhibitors” (PLOS Neglected Tropical Diseases, 2025):
Several values for one entry are separate records, joined by “and”; a condition that tells them apart may be missing. Equal entries are not always repeated.

Target: T1, HsERK8 (Homo sapiens, UniProt Q8TD08)
T1 construct: plasmid pGEX2T expressing the full-length hERK8 coding region; made in house; host or cells: Escherichia coli Rosetta 2 (DE3)
T1 sequence (Q8TD08 1-544): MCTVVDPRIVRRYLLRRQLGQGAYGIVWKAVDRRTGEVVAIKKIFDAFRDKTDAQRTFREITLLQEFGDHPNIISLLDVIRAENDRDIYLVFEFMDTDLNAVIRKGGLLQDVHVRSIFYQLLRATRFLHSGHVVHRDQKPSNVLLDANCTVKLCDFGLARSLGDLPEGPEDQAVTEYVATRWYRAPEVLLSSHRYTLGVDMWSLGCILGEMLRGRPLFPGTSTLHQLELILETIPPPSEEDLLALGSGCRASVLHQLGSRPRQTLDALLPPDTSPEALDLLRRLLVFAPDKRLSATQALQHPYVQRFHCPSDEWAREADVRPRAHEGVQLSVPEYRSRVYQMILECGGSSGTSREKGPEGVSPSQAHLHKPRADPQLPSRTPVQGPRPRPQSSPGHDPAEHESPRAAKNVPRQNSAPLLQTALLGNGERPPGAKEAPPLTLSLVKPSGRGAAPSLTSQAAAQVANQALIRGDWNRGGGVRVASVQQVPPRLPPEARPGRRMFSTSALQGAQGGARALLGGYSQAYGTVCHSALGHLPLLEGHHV
Assay: Luciferase-based kinase inhibition assay (ATP luminescence), GST-tagged HsERK8 with MBP substrate
Format: biochemical
Conditions: for raw luminescence, HsERK8: replicate wells; for raw luminescence, HsERK8 / Luminescence Raw (Kinase-Glo): listed as Sil; for Luminescence Raw (Kinase-Glo): HsERK8

CCCc1nn(C)c2c(=O)[nH]c(-c3cc(S(=O)(=O)N4CCN(C)CC4)ccc3OCC)nc12 [Sildenafil]
raw luminescence, HsERK8 (0.00015 mM compound, sheet ADP_ATP_glo081724 (3)): 2773.07 RLU and 2877.12 RLU and 2182.72 RLU | raw luminescence, HsERK8 (0.00015 mM compound, sheet Kinase_glo 08142024 (2)): 6784.32 RLU and 6634.26 RLU and 5826.91 RLU | raw luminescence, HsERK8 (0.00015 mM compound, sheet Kinase_glo_080924_IFPS (2)): 3800.03 RLU and 4341.28 RLU and 3728.16 RLU | raw luminescence, HsERK8 (0.00061 mM compound, sheet ADP_ATP_glo081724 (3)): 3277.47 RLU and 3338.54 RLU and 3085.21 RLU | raw luminescence, HsERK8 (0.00061 mM compound, sheet Kinase_glo 08142024 (2)): 5721.23 RLU and 5653.6 RLU and 3903.63 RLU | raw luminescence, HsERK8 (0.00061 mM compound, sheet Kinase_glo_080924_IFPS (2)): 1396.94 RLU and 1477.79 RLU and 1381.21 RLU | raw luminescence, HsERK8 (0.00244 mM compound, sheet ADP_ATP_glo081724 (3)): 3469.73 RLU and 3284.26 RLU and 2883.9 RLU | raw luminescence, HsERK8 (0.00244 mM compound, sheet Kinase_glo 08142024 (2)): 7264.08 RLU and 7348.62 RLU and 5611.33 RLU | raw luminescence, HsERK8 (0.00244 mM compound, sheet Kinase_glo_080924_IFPS (2)): 3130.75 RLU and 3411.49 RLU and 2899.43 RLU | raw luminescence, HsERK8 (0.00977 mM compound, sheet ADP_ATP_glo081724 (3)): 2892.95 RLU and 2795.69 RLU and 2354.62 RLU | raw luminescence, HsERK8 (0.00977 mM compound, sheet Kinase_glo 08142024 (2)): 7046.4 RLU and 7135.16 RLU and 5429.57 RLU | raw luminescence, HsERK8 (0.00977 mM compound, sheet Kinase_glo_080924_IFPS (2)): 3247.54 RLU and 3584.42 RLU and 3180.16 RLU | raw luminescence, HsERK8 (0.03906 mM compound, sheet ADP_ATP_glo081724 (3)): 3397.35 RLU and 3566.99 RLU and 3141.76 RLU | raw luminescence, HsERK8 (0.03906 mM compound, sheet Kinase_glo 08142024 (2)): 6515.91 RLU and 6714.58 RLU and 5167.5 RLU | raw luminescence, HsERK8 (0.03906 mM compound, sheet Kinase_glo_080924_IFPS (2)): 3400.26 RLU and 3463.14 RLU and 3305.93 RLU | IC50 (50 μM ATP, 30 min 30°C, triplicate, n/d = no detectible inhibition, read-out: HsERK8 IC50): 8 mM | raw luminescence, HsERK8 (0.15625 mM compound, sheet ADP_ATP_glo081724 (3)): 3281.99 RLU and 3150.8 RLU and 2531.05 RLU | raw luminescence, HsERK8 (0.15625 mM compound, sheet Kinase_glo 08142024 (2)): 6655.4 RLU and 6579.31 RLU and 5562.72 RLU | raw luminescence, HsERK8 (0.15625 mM compound, sheet Kinase_glo_080924_IFPS (2)): 3817.99 RLU and 4080.76 RLU and 3636.08 RLU | raw luminescence, HsERK8 (0.62500 mM compound, sheet ADP_ATP_glo081724 (3)): 3474.25 RLU and 3356.64 RLU and 2585.33 RLU | raw luminescence, HsERK8 (0.62500 mM compound, sheet Kinase_glo 08142024 (2)): 8487.8 RLU and 8306.04 RLU and 6687.1 RLU | raw luminescence, HsERK8 (0.62500 mM compound, sheet Kinase_glo_080924_IFPS (2)): 5547.32 RLU and 5693.3 RLU and 4916.23 RLU | raw luminescence, HsERK8 (2.50000 mM compound, sheet ADP_ATP_glo081724 (3)): 11748.2 RLU and 11610.3 RLU and 8563.49 RLU | raw luminescence, HsERK8 (2.50000 mM compound, sheet Kinase_glo 08142024 (2)): 29728.4 RLU and 30364.6 RLU and 22572.1 RLU | raw luminescence, HsERK8 (2.50000 mM compound, sheet Kinase_glo_080924_IFPS (2)): 13814.9 RLU and 12641.6 RLU and 13534.9 RLU | raw luminescence, HsERK8 (10.00000 mM compound, sheet ADP_ATP_glo081724 (3)): 18796.3 RLU and 18852.8 RLU and 18760.1 RLU | raw luminescence, HsERK8 (10.00000 mM compound, sheet Kinase_glo 08142024 (2)): 37233.5 RLU and 36922.8 RLU and 36986.2 RLU | raw luminescence, HsERK8 (10.00000 mM compound, sheet Kinase_glo_080924_IFPS (2), signal = ATP left): 19808.3 RLU and 19442.1 RLU and 19894.1 RLU | Luminescence Raw (Kinase-Glo) (inhibitor 0.00976562 mM, sheet Sil_Pred3, read 3): 76824 and 76849.7 and 75718.2 | Luminescence Raw (Kinase-Glo) (inhibitor 0.0195312 mM, sheet Sil_Pred3, read 3): 84913.3 and 83327.3 and 84201.1 | Luminescence Raw (Kinase-Glo) (inhibitor 0.0390625 mM, sheet Sil_Pred3, read 3): 86810.9 and 87656.6 and 88003.3 | Luminescence Raw (Kinase-Glo) (inhibitor 0.078125 mM, sheet Sil_Pred3, read 3): 83688.1 and 81764.7 and 82605.8 | Luminescence Raw (Kinase-Glo) (inhibitor 0.15625 mM, sheet Sil_Pred3, read 3): 84571.3 and 87872.1 and 86433.7 | Luminescence Raw (Kinase-Glo) (inhibitor 0.3125 mM, sheet Sil_Pred3, read 3): 80438.8 and 81286.8 and 83022.8 | Luminescence Raw (Kinase-Glo) (inhibitor 0.625 mM, sheet Sil_Pred3, read 3): 81408.6 and 81148.6 and 80450.5 | Luminescence Raw (Kinase-Glo) (inhibitor 0.00976562, sheet Sil_Pred1, read 1): 87353.2 and 86988.7 and 86809.9 | Luminescence Raw (Kinase-Glo) (inhibitor 0.00976562, sheet Sil_Pred2, read 2): 79598.9 and 79331.5 and 78826.8 | Luminescence Raw (Kinase-Glo) (inhibitor 0.0195312, sheet Sil_Pred1, read 1): 97908.4 and 96150.4 and 96258.1 | Luminescence Raw (Kinase-Glo) (inhibitor 0.0195312, sheet Sil_Pred2, read 2): 87627.4 and 86394.8 and 87122.7 | Luminescence Raw (Kinase-Glo) (inhibitor 0.0390625, sheet Sil_Pred1, read 1): 100125 and 101023 and 101243 | Luminescence Raw (Kinase-Glo) (inhibitor 0.0390625, sheet Sil_Pred2, read 2): 89720.6 and 90218.3 and 91030 | Luminescence Raw (Kinase-Glo) (inhibitor 0.078125, sheet Sil_Pred1, read 1): 96870.1 and 94163.1 and 94380.9 | Luminescence Raw (Kinase-Glo) (inhibitor 0.078125, sheet Sil_Pred2, read 2): 86171.5 and 85045.8 and 85399.3 | Luminescence Raw (Kinase-Glo) (inhibitor 0.15625, sheet Sil_Pred1, read 1): 97571.5 and 101844 and 101823 | Luminescence Raw (Kinase-Glo) (inhibitor 0.15625, sheet Sil_Pred2, read 2): 87601.8 and 91464.9 and 91334.7 | Luminescence Raw (Kinase-Glo) (inhibitor 0.3125, sheet Sil_Pred1, read 1): 91875.5 and 94802.6 and 96700.5 | Luminescence Raw (Kinase-Glo) (inhibitor 0.3125, sheet Sil_Pred2, read 2): 83203.8 and 85106.3 and 85450.5 | Luminescence Raw (Kinase-Glo) (inhibitor 0.625 (mM per sheet Pred3), sheet Kinase-Glo802124_Sil_Pred1, read 1, triplicate wells): 95077.7 and 94021 and 92790.1 | Luminescence Raw (Kinase-Glo) (inhibitor 0.625, sheet Sil_Pred2, read 2): 85048.1 and 84027.1 and 84180.6
